According to patent US9938267B2, “Heterocyclic inhibitors of glutaminase” (Calithera Biosciences, Inc., priority 2011, dated 2018):
Values after ≈ are worked out from the molar mass of the structure shown. Where two headings read alike, the source gives them in different places. One block for each compound: values may come before it.

Tests used:
[1] = Solubility (vortex mixed at room temperature, filtered, HPLC quantitation); assay type: physicochemical
Procedure: Ca. 1 mg portions of test article were combined with 120 μL solvent in wells of a 96×2 mL polypropylene plate. […] The contents of all wells were then filtered through a 0.45 μm GHP filter plate to yield clear filtrates. 5 μL of each filtrate was diluted into 100 μL DMF and vortex mixed to yield HPLC samples. Duplicate quantitation standards for each test article were prepared by diluting weighed portions of solid test article in measured volumes of DMF. 2 μL of each HPLC sample and quantitation standard were analyzed by HPLC using the method outlined in Table 5. Dissolved test article concentrations were calculated by peak area ratio against the appropriate quantitation standards.

[2] = biological target: T1, recombinant form of Glutaminase 1 (GAC) (Homo sapiens, UniProt O94925); assay: Recombinant enzyme assay (GAC, GDH-coupled absorbance, no preincubation); assay type: biochemical; conditions: read-out: GAC Delta N2 IC50 no preinc
Procedure: (§1) Enzymatic reaction was started with the addition of 50 μL of enzyme solution (50 mM Tris-HCl pH 8.0, 0.2 mM EDTA, 150 mM K2HPO4, 0.1 mg/ml BSA, 1 mM DTT, 10 ppm antifoam, 4 units/ml GDH, 4 mM adenosine diphosphate, and 4 nM GAC) and read in a Molecular Devices M5 plate reader at 20° C. The plate reader was configured to read absorbance (λ=340 nm) in kinetic mode for 15 minutes. Data was recorded as milli-absorbance units per minute and slopes were compared to a control compound and a DMSO-only control on the same plate. Compounds with slopes less than the DMSO control were considered inhibitors and plate variability was assessed using the control compound.

P493-6 (myc "on") cells = assay: Cell proliferation assay (72 hrs, Cell Titer Glo or Viacount FACS); assay type: cell-based; conditions: P493 cells, 72 h
Procedure: P493-6 (myc “on”) cells were maintained in growth media (RPMI-1640, 10% FBS, 2 mM glutamine, 100 units/ml Penicillin and 100 μg/ml streptomycin) at 37° C. with 5% CO2. For compound assay, P493-6 cells were plated in 96-well V-bottom plates on the day of compound addition in 50 μl of growth media at a cell density of 200,000 cells/ml (10,000 cells/well). Compounds were serially diluted in 100% DMSO at 200-times the final concentration. Compounds were diluted 100-fold into growth media and then 50 μl of this mixture was added to cell plates making the final concentration of DMSO 0.5%. Cells were incubated with compound for 72 hrs at 37° C. with 5% CO2 and analyzed for antiproliferative effects either by Cell Titer Glo (Promega) or FACS analysis using the Viacount (Millipore) kit on the Guava instrument.

[3] = system: HCT116 colon carcinoma xenograft; assay: HCT116 colon carcinoma xenograft efficacy study; assay type: in vivo; conditions: female scid/bg mice, intraperitoneal, twice daily; FIG. 1
Procedure: Certain compounds were assayed for in vivo efficacy in xenograft models as follows.
Female scid/bg mice, approximately 6 weeks of age, were implanted subcutaneously on the right flank with 5×10^6 HCT116 cells per mouse in a volume of 100 uL of sterile PBS. When tumors reached a volume of 50-100 mm^3, mice were randomized to groups of n=10 to receive either vehicle or test compound delivered twice daily by intraperitoneal injection. Tumors were measured three times per week using Vernier calipers and tumor volume calculated using the formula: Volume=(Length×Width^2/2), where length and width are the longest perpendicular sides of the tumor. Dosing continued twice daily until control tumors reached a size of 2000 mm^3. Statistical comparisons were made using a 2-way ANOVA with Bonferroni post-test.

Caco-2 cell monolayers = assay: Caco-2 permeability assay (bidirectional); assay type: in vitro ADME
From the text: Caco-2 cells are commonly used in a confluent monolayer on a cell culture insert filter. When cultured in this format and under specific conditions, the cells become differentiated and polarized such that their phenotype, morphologically and functionally resembles the enterocytes lining the small intestine. The cell monolayer provides a physical and biochemical barrier to the passage of small molecules, and is widely used across the pharmaceutical industry as an in vitro model of the human small intestinal mucosa to predict the absorption of orally administered drugs (Hidalgo et al., Gastroenterology, 1989; Artursson, J. Pharm. Sci., 1990). The correlation between the in vitro apparent permeability (P ? app) across Caco-2 monolayers and the in vivo absorption is well established (Artursson et al., Biochem. Biophys. Res. Comm., 1991).
The present assay was used to determine the bidirectional permeability of the compounds of the invention through Caco-2 cell monolayers. Caco-2 cells were grown in confluent monolayers where the media of both the apical (A) and basolateral (B) sides were at pH 7.4. Compounds were dosed at 1 μM in the presence of 200 μM Lucifer Yellow, on the apical side (A→B) or the basolateral side (B→A) for assessment, in duplicate.

[4] = biological target: T1, recombinant form of Glutaminase 1 (GAC); assay: Recombinant enzyme assay - time dependence (60 minutes enzyme/compound preincubation); assay type: biochemical; conditions: read-out: GAC Delta N2 IC50 60 min preinc
Procedure: as §1, with “The enzyme/compound mix was sealed with sealing foil (USA Scientific) and allowed to incubate, with mild agitation, for 60 minutes at 20° C. Enzymatic” for “Enzymatic”, “substrate” for “enzyme”, “DTT, 20 mM L-glutamine, 2 mM NAD^+, and” for “DTT,”, “antifoam)” for “antifoam, 4 units/ml GDH, 4 mM adenosine diphosphate, and 4 nM GAC)”

[5] = read-out: Cell prolif P493 72 h IC50

Solubility ([1]; 10% CrEL/50 mM cit): 157 µg/mL (≈ 0.268 mM)
Solubility ([1]; PEG400): 30179 µg/mL (≈ 51.4 mM)
Compound: CCCC(=O)OCN(C(=O)Cc1ccccc1)c1nnc(CCCCc2ccc(NC(=O)Cc3ccccc3)nn2)s1 [Compound 402]

Compound: O=C(O)Cc1cccc(CC(=O)Nc2nnc(CCCCc3nnc(NC(=O)Cc4cccc(CC(=O)O)c4)s3)s2)c1 [Compound 313]
IC50 [2]: 270 nM
IC50 (P493-6 (myc "on") cells; [5]): 94000 nM

IC50 [2]: 160 nM
Compound: CCOc1ccccc1CC(=O)Nc1nnc(CCCCc2nnc(NC(=O)Cc3ccccc3OC)s2)s1 [Compound 300]
IC50 (P493-6 (myc "on") cells; P493-6, read-out: Cell prolif P493 72 h IC50): 160 nM

Solubility ([1]; Capryol 90): 1744 µg/mL (≈ 3.06 mM)
Compound: O=C(Cc1cccc(OC(F)(F)F)c1)Nc1ccc(CCCCc2nnc(NC(=O)Cc3ccccc3)s2)nn1 [Compound 585]

Compound: O=C(CCN1CCOCC1)OCC(C(=O)Nc1nnc(CCCCc2nnc(NC(=O)C(COC(=O)CCN3CCOCC3)c3ccccc3)s2)s1)c1ccccc1 (centres unmarked) [Compound 188, {[5,5′-(butane-1,4-diyl)-bis(1,3,4-thiadiazole-5,2-diyl)]-bis(azanediyl)}-bis(3-oxo-2-phenylpropane-3,1-diyl)-bis(3-morpholinopropanoate)]
tumor size [3]: reduced tumor size

Significant Efflux (Caco-2 cell monolayers): No
Compound: O=C(Cc1cccc(OC(F)(F)F)c1)Nc1ccc(CCCCc2nnc(NC(=O)Cc3cccc(F)c3)s2)nn1 [Compound 679]

Solubility ([1]; 20% HPBCD/50 mM cit): 651 µg/mL (≈ 1.11 mM)
Compound: O=C(Cc1cccc(OC(F)(F)F)c1)Nc1ccc(CCCCc2nnc(NC(=O)[C@@H](O)c3ccccc3)s2)nn1 [Compound 703]

Solubility ([1]; PG): 8265 µg/mL (≈ 13.3 mM)
Compound: O=C(Cc1cccc(OC(F)(F)F)c1)Nc1ccc(CCCCc2nnc(NC(=O)C(O)c3cccc(Cl)c3)s2)nn1 (centres unmarked) [Compound 447]

Compound: NCc1cccc(CC(=O)Nc2nnc(CCCCc3nnc(NC(=O)Cc4cccc(CN)c4)s3)s2)c1 [Compound 325]
IC50 [2]: 660 nM
IC50 [4]: 170 nM
IC50 (P493-6 (myc "on") cells; [5]): 30 nM
